Laboratory results: publication PMC9241644, “Evaluation of Novel Quorum Sensing Inhibitors Targeting Auto-Inducer 2 (AI-2) for the Control of Avian Pathogenic Escherichia coli Infections in Chickens” (Microbiology Spectrum, 2022)

Key:
Rif^R APEC O78 [1] = assay: Efficacy of QSIs in APEC-infected chickens (oral gavage pilot); type: in vivo, Escherichia coli; conditions: for Average lesion severity, Lung / Average lesion severity, Liver / Average lesion severity, Airsac / Average lesion severity, Heart / Mortality rate % (Nr.) / Average APEC load, Liver / Average APEC load, Heart / Average APEC load, Kidney / Average APEC load, Lung: Table S1, oral gavage pilot; for Average lesion severity, Lung / Average lesion severity, Liver / Average lesion severity, Airsac / Average lesion severity, Heart: lesion score; for Average lesion severity, Lung: PC 1.25; for Average lesion severity, Liver: PC 1.75; for Average lesion severity, Airsac: PC 2.00; for Average lesion severity, Heart: PC 2.25; for Mortality rate % (Nr.): n = 6/group, 8 DPI, PC 66.6 (4/6); for Average APEC load, Liver: PC 5.95; for Average APEC load, Heart: PC 5.98; for Average APEC load, Kidney: PC 6.81; for Average APEC load, Lung: PC 6.83; for reduction in mortality compared with the PC group / average APEC load reduction in the internal organs (liver, heart, lung, kidney) compared with PC: chickens, QSI oral gavage once daily 5 days, s/c APEC O78 1 × 10^7 CFU/bird; for reduction in mortality compared with the PC group: PC mortality normalized to 100%; for average APEC load reduction in the internal organs (liver, heart, lung, kidney) compared with PC: range over organs
Method: The chicken experiment was carried out using 1-day-old broiler chickens (Mayer Hatchery, OH, USA). Feed and water were given ad libitum. Chickens (n = 6/group) were administered with the QSIs (QSI-1, QSI-2, QSI-5 − 8, QSI-10, ChemBridge, San Diego, CA); previously designated as C1, C2, C5, C6, C7, C8, C10 ([17]) using oral gavage. These compounds were selected based on their high efficacy in in vitro studies and the doses correspond to 30X of the initial in vitro screening concentration ([17]). The QSIs were suspended in dimethyl sulfoxide (DMSO; used as a vehicle) and administered once daily for 5 successive days (starting from day 4 to day 8). The first dose was administered 1 day before the challenge, followed by the second dose on the challenge day (2 h before challenge), followed by three additional doses on subsequent days. Feeders were removed 1 h prior to the treatment and replaced 1 h after the treatment. Chickens were challenged subcutaneously (s/c) on day 5 with Rif^R APEC O78 (1 × 10^7 CFU/bird) in PBS using syringe (27 gauge, 0.5 in.). The challenge dose, which […], was chosen based on preliminary experiments conducted with different infection routes (subcutaneous s/c, intra-tracheal and intra-airsacs) and different doses (10^6, 10^7, and 10^8 CFU/chicken). […] Therefore, we selected this challenge dose and route for evaluation of QSIs in chickens ([34]). The positive (PC; infected with APEC O78 and DMSO treated) and negative (NC; non-infected and non-treated) control groups were included.
(§1) Chickens were monitored for clinical signs for 8 DPI. Any chickens moribund during this period were humanely euthanized and necropsied to determine bacterial load in the internal organs (liver, heart, lung, and kidney). Internal organs were aseptically collected, weighed and suspended in 1× PBS, the amount of PBS added was adjusted based on the organ size to make a suspension, the organ size and amount of PBS added were included in the final calculation of the CFU. The samples were homogenized, serially diluted 10-fold, plated on MacConkey agar (Remel, CA, USA) containing 50 μg/mL rifampicin, and incubated at 37°C for 24 h to determine the CFU/g. Pathological lesions severity in internal organs (pericarditis, perihepatitis, airsacculitis, and lung congestion) was scored as described previously ([21], [59]). At 8 DPI, the remaining chickens were humanely euthanized and necropsied, lesions were scored, and the APEC load was quantified in internal organs as described above.

Rif^R APEC O78 [2] = assay: Comparative efficacy of QSI-5 and SDM in field simulated conditions (built-up floor litter); type: in vivo, Escherichia coli
Description: as §1
To compare the efficacy of QSI-5 with an antibiotic SDM currently used in the field, chickens (n = 70) were raised on built-up floor litter in a field-simulated conditions. One-day-old broiler chickens (Case Farms Ohio Hatchery, OH, USA) were used for conducting the experiment. The optimized dose of QSI-5 (1 mg/L) and the therapeutic dose of SDM (495.323 mg/L) (0.05%) were given in drinking water daily for 7 days (starting from day 5 to day 11 of age). The volume of drinking water needed daily was determined as described above. On day 6, the chickens were infected s/c with Rif^r APEC O78 (5 × 10^6 CFU/chicken, s/c). PC (0.05% DMSO treated and infected) and NC (non-infected and non-treated) control groups were included. The mortality was recorded daily until the end of the experiment (42 days of age: slaughter age). At 8 DPI, half of the chickens from each group were necropsied, lesions were scored, and the APEC load was quantified in the internal organs as described above. The other half of the chickens were raised until day 42 to determine the impact of treatment on the body weight gain and feed intake. To calculate the FCR, body weight was measured once every week and feed intake was recorded every day. On day 42, the remaining chickens were euthanized, body weight was measured and 10 chickens from each group were randomly selected and necropsied, lesions and APEC load were assessed in the internal organs.

[3] = QSI-5 and SDM residue quantification in muscle, kidney and liver (LC-MS); type: in vivo, chickens; conditions: in vivo
Method: The safety of QSI-5 and SDM was assessed by measuring the level of drug residue in the muscle, kidney, and liver using LC-MS (CCIC, MS&P Facility, OSU) as described before ([34]). As described above, chickens were administered with the optimized dose of QSI-5 (1 mg/L) and the therapeutic dose of SDM (495.323 mg/L) (0.05%) in drinking water daily for 7 days (starting from day 5 to day 11 of age). Tissue samples were collected individually from chickens treated with QSI-5 and SDM (five chickens per group) from experimental set up as described for floor trial at 2 DPLT, 5 DPLT, and […] (slaughter age). All samples were weighed and extracted at a 400 mg/mL ratio of tissue in the extraction solution (50:50 H2O: ACN). Samples were homogenized using a probe sonicator 20 times and centrifuged at 13,000 × g for 30 min. Sixty μL of the supernatant was transferred into glass vials and dried in a SpeedVac for 1.5 h, and then resuspended in 120 μL of 25:25:50 H2O:ACN:MeOH. Standard calibration, LC system, mass spectrometer, and drug target monitoring were performed as described above. Calibration standard curves for measuring the accumulation of QSI-5 and SDM in the kidney, liver, and muscle are shown in Fig. S6A and S6B.

| Structure (SMILES) | Average lesion severity, Lung (Rif^R APEC O78 [1]) | Average lesion severity, Liver (Rif^R APEC O78 [1]) | Average lesion severity, Airsac (Rif^R APEC O78 [1]) | Average lesion severity, Heart (Rif^R APEC O78 [1]) | Mortality rate % (Nr.) (Rif^R APEC O78 [1]) [%] | Average APEC load, Liver (Rif^R APEC O78 [1]) | Average APEC load, Heart (Rif^R APEC O78 [1]) | Average APEC load, Kidney (Rif^R APEC O78 [1]) | Average APEC load, Lung (Rif^R APEC O78 [1]) | reduction in mortality compared with the PC group (Rif^R APEC O78 [1]) | further results |
| --- | --- | --- | --- | --- | --- | --- | --- | --- | --- | --- | --- |
| COCCN1CCC(CN(Cc2cccnc2)Cc2ccccc2Cl)CC1 [QSI-1] | 0.50 | 2.17 | 1.83 | 3.00 | 50 | 5.30 Log CFU/g of tissue | 5.63 Log CFU/g of tissue | 6.28 Log CFU/g of tissue | 5.92 Log CFU/g of tissue | 25% | average APEC load reduction in the internal organs (liver, heart, lung, kidney) compared with PC (Rif^R APEC O78 [1]): did not reduce the APEC load |
| Cc1ccccc1N1CCN(C2CCCN(C(=O)c3ccc(F)c(Cl)c3)C2)CC1 (stereo not drawn) [QSI-2] | 0.17 | 1.00 | 0.92 | 1.67 | 33.3 | 4.20 Log CFU/g of tissue | 4.87 Log CFU/g of tissue | 5.07 Log CFU/g of tissue | 5.15 Log CFU/g of tissue | 50% | – |
| O=[N+]([O-])c1cccc(S(=O)(=O)Nc2ccc(Br)cc2)c1 [QSI-6] | 0.50 | 0.83 | 1.17 | 1.50 | 66.6 | 4.62 Log CFU/g of tissue | 4.87 Log CFU/g of tissue | 5.35 Log CFU/g of tissue | 5.17 Log CFU/g of tissue | did not reduce mortality | – |
| O=C(CCN1CCN(c2ccccc2F)CC1)Nc1ccc(Br)cc1 [QSI-7] | 0.17 | 1.33 | 1.00 | 1.33 | 66.6 | 5.95 Log CFU/g of tissue | 6.13 Log CFU/g of tissue | 6.13 Log CFU/g of tissue | 6.10 Log CFU/g of tissue | did not reduce mortality | average APEC load reduction in the internal organs (liver, heart, lung, kidney) compared with PC (Rif^R APEC O78 [1]): did not reduce the APEC load |
| CCc1ccccc1NC1NC(c2c(C)nc3ccccn23)=CS1 (stereo not drawn) [QSI-8] | 0.17 | 0.50 | 0.50 | 0.50 | 33.3 | 3.48 Log CFU/g of tissue | 3.60 Log CFU/g of tissue | 3.65 Log CFU/g of tissue | 4.60 Log CFU/g of tissue | 50% | – |
| OCCC1CN(C2CCN(c3ccccc3)CC2)CCN1CCCc1ccccc1 (stereo not drawn) [QSI-10] | 0.00 | 0.00 | 0.17 | 0.33 | 16.6 | 2.50 Log CFU/g of tissue | 2.50 Log CFU/g of tissue | 2.47 Log CFU/g of tissue | 3.08 Log CFU/g of tissue | – | – |
| COc1cc(NS(=O)(=O)c2ccc(N)cc2)nc(OC)n1 [SDM, sulfadimethoxine] | – | – | – | – | – | – | – | – | – | – | Average lesion severity, Lung (Rif^R APEC O78 [2]; Table S3, PC 1.85): 1.17; Average lesion severity, Liver (Rif^R APEC O78 [2]; Table S3, PC 2.52): 2.03; Average lesion severity, Airsac (Rif^R APEC O78 [2]; Table S3, PC 3.36): 2.50; Average lesion severity, Heart (Rif^R APEC O78 [2]; Table S3, PC 3.58): 2.83; Average APEC load, Liver (Rif^R APEC O78 [2]; Table S3, PC 7.24): 5.05 Log CFU/ g of tissue; Average APEC load, Lung (Rif^R APEC O78 [2]; Table S3, PC 7.68): 6.17 Log CFU/ g of tissue; Average APEC load, Kidney (Rif^R APEC O78 [2]; Table S3, PC 7.73): 5.33 Log CFU/ g of tissue; Average APEC load, Heart (Rif^R APEC O78 [2]; Table S3, PC 7.92): 5.69 Log CFU/ g of tissue; Mortality rate % (Nr.) (Rif^R APEC O78 [2]; Table S3, until 42 days of age, QSI-5 (8/63), SDM (19/65), PC 45.6 (31/68)): 29.2%; reduction in mortality compared with the PC group (Rif^R APEC O78 [2]; built-up floor litter, QSI-5 1 mg/L, SDM 495.3 mg/L (0.05%) in drinking water 7 days, s/c APEC O78 5 × 10^6 CFU/chicken): 35.9%; Drug accumulation, Liver (ppm± SD) ([3]; broiler, chicken, 35 DPLT): 0.0 ± 0.0 ppm; Drug accumulation, Muscle (ppm± SD) ([3]; broiler, chicken, 35 DPLT): 0.0 ± 0.0 ppm; Drug accumulation, Kidney (ppm± SD) ([3]; commercial broiler, chicken, 35 DPLT): 0.0 ± 0.0 ppm; residue in any tissues [3]: no detectable residues |
